This note sets out measurements from patent publication US9493486B2, “Diazaspirocycloalkane and azaspirocycloalkane” (Hoffmann-La Roche Inc., priority 2012, dated 2016).

In the assay the target is ATX (human His-tagged) (Homo sapiens (Human), UniProt Q13822). Put plainly: Human ATX enzyme inhibition assay (fluorescence quenching, MR121 substrate). Conditions: 30 nM ATX, 1 μM MR121 substrate, 30° C. Format: biochemical. From the text:
Human ATX Enzyme Inhibition Assay
Assay working solutions were made as follows:
For `O=C(OCc1cc(Cl)cc(Cl)c1)N1CCC2(CC1)CN(S(=O)(=O)c1ccc3[nH]c(=O)oc3c1)C2` [Example 3, 3,5-Dichlorobenzyl 2-(2-oxo-2,3-dihydro-benzo[d]oxazol-6-ylsulfonyl)-2,7-diazaspiro[3.5]nonane-7-carboxylate], the 50% inhibitory concentration (IC50) (in general, the midpoint of a concentration-inhibition curve) is 6 nM.

As for `O=C(CCCc1ccccc1)N1CC2(CC(NS(=O)(=O)c3ccc4[nH]c(=O)oc4c3)C2)C1` [Example 3.1, 2-oxo-2,3-dihydro-benzooxazole-6-sulfonic acid [2-(4-phenyl-butyryl)-2-aza-spiro[3.3]hept-6-yl]-amide], the IC50 came to 3560 nM.

On to `O=C(OCc1ccccc1)N1CC2(CC(NS(=O)(=O)c3ccc4[nH]c(=O)oc4c3)C2)C1` [Example 3.2, benzyl 6-(2-oxo-2,3-dihydrobenzo[d]oxazole-6-sulfonamido)-2-azaspiro[3.3]heptane-2-carboxylate], for which the midpoint of inhibition, the IC50, lay at 298 nM.

Consider `O=C(CCc1cc(Cl)cc(Cl)c1)N1CC2(CC(NS(=O)(=O)c3ccc4[nH]c(=O)oc4c3)C2)C1` [Example 3.3, 2-oxo-2,3-dihydro-benzooxazole-6-sulfonic acid {2-[3-(3,5-dichloro-phenyl)-propionyl]-2-aza-spiro[3.3]hept-6-yl}-amide], for which the 50% inhibitory concentration (IC50) came to 59 nM.

`O=C(OCc1cc(Cl)cc(Cl)c1)N1CC2(CC(NS(=O)(=O)c3ccc4[nH]c(=O)oc4c3)C2)C1` [Example 3.4, 3,5-dichlorobenzyl 6-(2-oxo-2,3-dihydrobenzo[d]oxazole-6-sulfonamido)-2-azaspiro[3.3]heptane-2-carboxylate] showed an IC50 of 19.5 nM.

On to `O=C(NC1CC2(C1)CN(S(=O)(=O)c1ccc3[nH]c(=O)oc3c1)C2)OCc1cc(Cl)cc(Cl)c1` [Example 3.5, [2-(2-oxo-2,3-dihydro-benzooxazole-6-sulfonyl)-2-aza-spiro[3.3]hept-6-yl]-carbamic acid 3,5-dichloro-benzyl ester], for which it took 20 nM to reach half-maximal inhibition (IC50).

`CS(=O)(=O)c1cc(Cl)cc(COC(=O)N2CCC3(CC2)CN(S(=O)(=O)c2ccc4[nH]c(=O)sc4c2)C3)c1` [Example 3.6, 3-chloro-5-(methylsulfonyl)benzyl 2-(2-oxo-2,3-dihydrobenzo[d]thiazol-6-ylsulfonyl)-2,7-diazaspiro[3.5]nonane-7-carboxylate] displayed an IC50 of 67 nM.

`O=C(OCc1cc(Cl)cc(Cl)c1)N1CCC2(CC1)CN(Cc1ccc3[nH]c(=O)oc3c1)C2` [Example 4, 3,5-Dichlorobenzyl 2-((2-oxo-2,3-dihydro-benzo[d]oxazol-6-yl)methyl)-2,7-diaza-spiro[3.5]nonane-7-carboxylate]: the 50% inhibitory concentration (IC50) was 546 nM.

The compound `O=C(OCc1cc(Cl)cc(Cl)c1)N1CCC2(CC1)CN(C(=O)c1ccc3[nH]c(=O)oc3c1)C2` [Example 5, 3,5-Dichlorobenzyl 2-(2-oxo-2,3-dihydrobenzo[d]oxazole-6-carbonyl)-2,7-diazaspiro[3.5]nonane-7-carboxylate] returned an IC50 of 7 nM.

`O=C(CCc1cc(Cl)cc(Cl)c1)N1CCC2(CC1)CN(C(=O)c1ccc3[nH]c(=O)oc3c1)C2` [Example 5.1, 6-(7-(3-(3,5-dichlorophenyl)propanoyl)-2,7-diazaspiro[3.5]nonane-2-carbonyl)benzo[d]oxazol-2(3H)-one] returned an IC50 of 61 nM.

In turn, `O=C(NC1CC2(C1)CN(C(=O)OCc1cc(Cl)cc(Cl)c1)C2)c1ccc2[nH]c(=O)oc2c1` [Example 5.2, 6-[(2-oxo-2,3-dihydro-benzooxazole-6-carbonyl)-amino]-2-aza-spiro[3.3]heptane-2-carboxylic acid 3,5-dichloro-benzyl ester] came in with an IC50 of 26.5 nM.

For `O=C(/C=C/c1cc(Cl)cc(Cl)c1)N1CCC2(CC1)CN(C(=O)c1ccc3[nH]nnc3c1)C2` [Example 6, (E)-1-(2-(1H-benzo[d][1,2,3]triazole-5-carbonyl)-2,7-diazaspiro[3.5]nonan-7-yl)-3-(3,5-dichlorophenyl)prop-2-en-1-one], half-maximal inhibition (IC50) required 26 nM.

For the compound `O=C(CCc1cc(Cl)cc(Cl)c1)N1CCC2(CC1)CC(Nc1ccc3[nH]c(=O)oc3c1)C2` [Example 6.1, 6-(7-(3-(3,5-dichlorophenyl)propanoyl)-7-azaspiro[3.5]nonan-2-ylamino)benzo[d]oxazol-2(3H)-one], the IC50 came out at 362 nM.

In turn, `O=C(COc1cc(Cl)cc(Cl)c1)N1CCC2(CC1)CN(C(=O)c1ccc3[nH]nnc3c1)C2` [Example 6.2, 1-(2-(1H-benzo[d][1,2,3]triazole-5-carbonyl)-2,7-diazaspiro[3.5]nonan-7-yl)-2-(3,5-dichlorophenoxy)ethanone] displayed a 50% inhibitory concentration (IC50) of 298 nM.

`O=C(c1cc(Cl)cc(Cl)c1)N1CCC2(CC1)CN(C(=O)c1ccc3[nH]nnc3c1)C2` [Example 6.3, (2-(1H-benzo[d][1,2,3]triazole-5-carbonyl)-2,7-diazaspiro[3.5]nonan-7-yl)(3,5-dichlorophenyl)methanone]: the concentration for half-maximal inhibition (IC50) amounted to 2660 nM.

Take `O=C(/C=C/c1cc(Cl)cc(Cl)c1)N1CCC2(CC1)CN(C(=O)c1ccc3[nH]c(=O)oc3c1)C2` [Example 6.4, 6-{7-[(E)-3-(3,5-dichloro-phenyl)-acryloyl]-2,7-diaza-spiro[3.5]nonane-2-carbonyl}-3H-benzooxazol-2-one]: the half-maximal inhibitory concentration (IC50) amounted to 22 nM.

The compound `O=C(c1ccc2[nH]nnc2c1)N1CCC2(CCN(C(=O)c3cc4cc(Cl)ccc4[nH]3)C2)C1` (centres unmarked) [Example 6.6, (7-(1H-benzo[d][1,2,3]triazole-5-carbonyl)-2,7-diazaspiro[4.4]nonan-2-yl)(5-chloro-1H-indol-2-yl)methanone] had an IC50 of 605 nM.

Compound `O=C(c1ccc2[nH]nnc2c1)N1CCC2(CCN(C(=O)c3cc4cc(Cl)ccc4o3)C2)C1` (centres unmarked) [Example 6.7, (7-(1H-benzo[d][1,2,3]triazole-5-carbonyl)-2,7-diazaspiro[4.4]nonan-2-yl)(5-chlorobenzofuran-2-yl)methanone] showed an IC50 of 3930 nM.

`O=C(NCc1cnn[nH]1)C1CC2(CCN(C(=O)/C=C/c3ccc(OC(F)(F)F)cc3)CC2)C1` [Example 6.8, (E)-N-((1H-1,2,3-triazol-5-yl)methyl)-7-(3-(4-(trifluoromethoxy)phenyl)acryloyl)-7-azaspiro[3.5]nonane-2-carboxamide] displayed an IC50 of 91 nM.

Consider `O=C(C#Cc1ccc(Cl)cc1)N1CCC2(CC1)CN(C(=O)c1ccc3[nH]nnc3c1)C2` [Example 6.9, 1-(2-(1H-benzo[d][1,2,3]triazole-5-carbonyl)-2,7-diazaspiro[3.5]nonan-7-yl)-3-(4-chlorophenyl)prop-2-yn-1-one], for which the half-maximal inhibitory concentration (IC50) came out at 128 nM.

In the case of `O=C(C#Cc1cccc(Cl)c1)N1CCC2(CC1)CN(C(=O)c1ccc3[nH]nnc3c1)C2` [Example 6.10, 1-(2-(1H-benzo[d][1,2,3]triazole-5-carbonyl)-2,7-diazaspiro[3.5]nonan-7-yl)-3-(3-chlorophenyl)prop-2-yn-1-one], the IC50 stood at 826 nM.

`O=C(c1ccc2[nH]nnc2c1)N1CC2(CCN(c3nnc(-c4cc(Cl)cc(Cl)c4)o3)CC2)C1` [Example 7, (1H-benzo[d][1,2,3]triazol-5-yl)(7-(5-(3,5-dichlorophenyl)-1,3,4-oxadiazol-2-yl)-2,7-diazaspiro[3.5]nonan-2-yl)methanone] displayed a 50% inhibitory concentration (IC50) of 43 nM.

Turning to `O=C(c1ccc2[nH]nnc2c1)N1CC2(CCN(c3nnc(-c4ccc(Cl)cc4)o3)CC2)C1` [Example 7.1, (1H-benzo[d][1,2,3]triazol-5-yl)(7-(5-(4-chlorophenyl)-1,3,4-oxadiazol-2-yl)-2,7-diazaspiro[3.5]nonan-2-yl)methanone], the 50% inhibitory concentration (IC50) was determined as 260 nM.

As for `O=C(c1ccc2[nH]nnc2c1)N1CC2(CCN(c3nnc(-c4ccc(Cl)cc4)s3)CC2)C1` [Example 8, (1H-Benzo[d][1,2,3]triazol-5-yl)(7-(5-(4-chlorophenyl)-1,3,4-thiadiazol-2-yl)-2,7-diazaspiro[3.5]nonan-2-yl)methanone], 178 nM corresponded to half-maximal inhibition (IC50).

As for `O=C(NCc1cc(Cl)cc(Cl)c1)N1CCC2(CC1)CN(C(=O)c1ccc3[nH]nnc3c1)C2` [Example 9, 2-(1H-Benzo[d][1,2,3]triazole-5-carbonyl)-N-(3,5-dichlorobenzyl)-2,7-diazaspiro[3.5]nonane-7-carboxamide], the IC50 turned out to be 1060 nM.

Take `O=C(c1ccc2[nH]nnc2c1)N1CC2(CCN(C(=O)N3Cc4ccc(Cl)cc4C3)CC2)C1` [Example 10, (2-(1H-Benzo[d][1,2,3]-triazole-5-carbonyl)-2,7-diazaspiro[3.5]nonan-7-yl)(5-chloroisoindolin-2-yl)methanone]: the half-maximal inhibitory concentration (IC50) worked out at 3440 nM.

Regarding `O=C(OCc1ccccc1)N1CCC2(CC1)CC(Nc1ccc3[nH]c(=O)oc3c1)C2` [Example 11, Benzyl 2-(2-oxo-2,3-dihydrobenzo[d]oxazol-6-ylamino)-7-azaspiro[3.5]nonane-7-carboxylate], inhibition was half-maximal at 1290 nM (IC50).

The compound `O=C(OCc1ccc(Cl)c(F)c1)N1CCC2(CC1)CN(C(=O)c1ccc3[nH]nnc3c1)C2` [Example 12, 4-Chloro-3-fluorobenzyl 2-(1H-benzo[d][1,2,3]triazole-5-carbonyl)-2,7-diazaspiro[3.5]nonane-7-carboxylate] came in with an IC50 of 130 nM.

`O=C(OCc1cc(Cl)nc(Cl)c1)N1CCC2(CC1)CN(C(=O)c1ccc3[nH]nnc3c1)C2` [Example 12.01, (2,6-dichloropyridin-4-yl)methyl 2-(1H-benzo[d][1,2,3]triazole-5-carbonyl)-2,7-diazaspiro[3.5]nonane-7-carboxylate] registered an IC50 of 150 nM.

In turn, `O=C(OCc1ccc(Cl)c(Cl)c1)N1CCC2(CC1)CN(C(=O)c1ccc3[nH]nnc3c1)C2` [Example 12.02, 3,4-dichlorobenzyl 2-(1H-benzo[d][1,2,3]triazole-5-carbonyl)-2,7-diazaspiro[3.5]nonane-7-carboxylate] showed an IC50 of 44 nM.

Take `O=C(OCc1cnc(Cl)c(Cl)c1)N1CCC2(CC1)CN(C(=O)c1ccc3[nH]nnc3c1)C2` [Example 12.03, (5,6-dichloropyridin-3-yl)methyl 2-(1H-benzo[d][1,2,3]triazole-5-carbonyl)-2,7-diazaspiro[3.5]nonane-7-carboxylate]: half-maximal inhibition (IC50) required 622 nM.

`O=C(OCc1ccc(Cl)cc1Cl)N1CCC2(CC1)CN(C(=O)c1ccc3[nH]nnc3c1)C2` [Example 12.04, 2,4-dichlorobenzyl 2-(1H-benzo[d][1,2,3]triazole-5-carbonyl)-2,7-diazaspiro[3.5]nonane-7-carboxylate] registered an IC50 of 17 nM.
